The target of one assay is T1, Ephrin type-B receptor 2 (Homo sapiens, UniProt P29323).
T1 sequence (P29323 whole entry): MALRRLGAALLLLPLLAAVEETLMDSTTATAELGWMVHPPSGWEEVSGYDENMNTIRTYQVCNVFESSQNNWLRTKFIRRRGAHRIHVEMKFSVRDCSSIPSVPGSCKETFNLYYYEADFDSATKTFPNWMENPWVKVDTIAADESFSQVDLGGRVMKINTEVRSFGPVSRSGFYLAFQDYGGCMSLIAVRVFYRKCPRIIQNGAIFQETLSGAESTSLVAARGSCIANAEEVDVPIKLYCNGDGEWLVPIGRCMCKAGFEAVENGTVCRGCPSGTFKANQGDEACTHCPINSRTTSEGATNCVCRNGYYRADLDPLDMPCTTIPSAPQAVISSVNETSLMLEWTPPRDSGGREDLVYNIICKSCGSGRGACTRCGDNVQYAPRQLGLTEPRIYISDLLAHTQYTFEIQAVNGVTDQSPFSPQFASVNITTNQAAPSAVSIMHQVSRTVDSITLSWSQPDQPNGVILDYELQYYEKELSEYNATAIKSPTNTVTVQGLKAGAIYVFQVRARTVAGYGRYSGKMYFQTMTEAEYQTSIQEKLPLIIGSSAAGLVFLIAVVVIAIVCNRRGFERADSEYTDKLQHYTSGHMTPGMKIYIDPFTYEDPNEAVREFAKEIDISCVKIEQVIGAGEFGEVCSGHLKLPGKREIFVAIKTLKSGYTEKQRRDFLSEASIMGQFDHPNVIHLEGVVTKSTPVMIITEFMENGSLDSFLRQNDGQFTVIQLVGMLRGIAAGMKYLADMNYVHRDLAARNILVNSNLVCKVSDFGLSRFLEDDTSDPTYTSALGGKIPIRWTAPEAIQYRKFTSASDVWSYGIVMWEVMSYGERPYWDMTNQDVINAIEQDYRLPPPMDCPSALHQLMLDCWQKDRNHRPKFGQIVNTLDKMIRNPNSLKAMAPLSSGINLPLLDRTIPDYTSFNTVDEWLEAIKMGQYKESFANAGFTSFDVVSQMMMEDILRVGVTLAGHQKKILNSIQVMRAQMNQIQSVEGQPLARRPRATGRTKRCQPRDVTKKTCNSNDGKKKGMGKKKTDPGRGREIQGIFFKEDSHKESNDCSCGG

Assay [1] deals with Mitogen-activated protein kinase 3 (Homo sapiens, UniProt P27361).
Assay [2] addresses T2, Serine/threonine-protein kinase Nek2 (Homo sapiens, UniProt P51955).
T2 sequence (P51955 whole entry): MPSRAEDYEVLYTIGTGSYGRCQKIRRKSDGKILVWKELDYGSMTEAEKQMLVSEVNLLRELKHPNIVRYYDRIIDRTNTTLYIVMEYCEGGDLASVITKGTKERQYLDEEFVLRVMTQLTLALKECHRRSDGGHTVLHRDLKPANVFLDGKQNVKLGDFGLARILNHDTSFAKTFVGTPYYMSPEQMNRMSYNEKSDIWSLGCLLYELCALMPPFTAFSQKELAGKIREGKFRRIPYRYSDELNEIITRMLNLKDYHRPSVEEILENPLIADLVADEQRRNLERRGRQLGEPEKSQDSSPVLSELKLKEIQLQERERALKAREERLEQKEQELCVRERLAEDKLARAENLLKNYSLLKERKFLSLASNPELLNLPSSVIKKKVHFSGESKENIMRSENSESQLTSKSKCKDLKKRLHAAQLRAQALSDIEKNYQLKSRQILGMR

The target of assay [3] is Protein-tyrosine kinase 2-beta (Homo sapiens, UniProt Q14289).
The target in another assay is T3, Rab-like protein 3 (Homo sapiens, UniProt Q5HYI8).
T3 sequence (Q5HYI8 whole entry): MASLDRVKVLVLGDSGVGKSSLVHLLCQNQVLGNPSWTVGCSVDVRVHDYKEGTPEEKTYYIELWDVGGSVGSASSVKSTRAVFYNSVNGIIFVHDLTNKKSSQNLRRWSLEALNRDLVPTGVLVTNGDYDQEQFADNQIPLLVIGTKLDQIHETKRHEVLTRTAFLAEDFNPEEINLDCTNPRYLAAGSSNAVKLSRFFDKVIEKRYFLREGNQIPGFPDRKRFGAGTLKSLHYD

In assay [4] the target is T4, ATP-dependent RNA helicase DDX42 (Homo sapiens, UniProt Q86XP3).
T4 sequence (Q86XP3 whole entry): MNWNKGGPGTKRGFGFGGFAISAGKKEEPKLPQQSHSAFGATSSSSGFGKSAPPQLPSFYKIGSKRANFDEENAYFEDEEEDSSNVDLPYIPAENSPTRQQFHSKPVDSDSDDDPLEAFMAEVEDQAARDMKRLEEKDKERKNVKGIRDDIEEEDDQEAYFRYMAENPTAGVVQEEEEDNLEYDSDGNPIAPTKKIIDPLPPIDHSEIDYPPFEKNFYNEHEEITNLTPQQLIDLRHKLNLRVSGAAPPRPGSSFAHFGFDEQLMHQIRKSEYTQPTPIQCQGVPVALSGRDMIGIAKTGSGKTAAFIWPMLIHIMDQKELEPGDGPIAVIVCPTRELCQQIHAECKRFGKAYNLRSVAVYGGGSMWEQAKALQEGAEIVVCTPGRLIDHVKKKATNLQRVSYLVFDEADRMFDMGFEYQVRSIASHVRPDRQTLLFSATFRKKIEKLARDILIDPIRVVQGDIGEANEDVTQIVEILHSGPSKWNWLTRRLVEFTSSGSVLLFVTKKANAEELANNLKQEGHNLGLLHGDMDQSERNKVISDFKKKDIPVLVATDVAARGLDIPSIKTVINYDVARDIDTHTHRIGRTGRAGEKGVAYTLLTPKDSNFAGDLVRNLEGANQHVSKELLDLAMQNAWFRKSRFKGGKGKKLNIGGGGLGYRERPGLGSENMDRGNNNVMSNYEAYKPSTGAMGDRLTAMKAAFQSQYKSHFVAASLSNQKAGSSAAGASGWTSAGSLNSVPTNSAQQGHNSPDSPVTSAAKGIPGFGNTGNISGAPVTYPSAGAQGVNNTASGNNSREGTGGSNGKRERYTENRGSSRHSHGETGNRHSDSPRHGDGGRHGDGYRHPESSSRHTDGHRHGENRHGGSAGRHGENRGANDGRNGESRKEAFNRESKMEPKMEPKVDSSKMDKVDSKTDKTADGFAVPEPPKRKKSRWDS

The source made the active and inactive calls. Where only a bound is given, the exact number is not on record here.
Also: in the data inactive means no Kd found up to 30 µM.

Chain of Protein-tyrosine kinase 2-beta (Q14289 whole entry): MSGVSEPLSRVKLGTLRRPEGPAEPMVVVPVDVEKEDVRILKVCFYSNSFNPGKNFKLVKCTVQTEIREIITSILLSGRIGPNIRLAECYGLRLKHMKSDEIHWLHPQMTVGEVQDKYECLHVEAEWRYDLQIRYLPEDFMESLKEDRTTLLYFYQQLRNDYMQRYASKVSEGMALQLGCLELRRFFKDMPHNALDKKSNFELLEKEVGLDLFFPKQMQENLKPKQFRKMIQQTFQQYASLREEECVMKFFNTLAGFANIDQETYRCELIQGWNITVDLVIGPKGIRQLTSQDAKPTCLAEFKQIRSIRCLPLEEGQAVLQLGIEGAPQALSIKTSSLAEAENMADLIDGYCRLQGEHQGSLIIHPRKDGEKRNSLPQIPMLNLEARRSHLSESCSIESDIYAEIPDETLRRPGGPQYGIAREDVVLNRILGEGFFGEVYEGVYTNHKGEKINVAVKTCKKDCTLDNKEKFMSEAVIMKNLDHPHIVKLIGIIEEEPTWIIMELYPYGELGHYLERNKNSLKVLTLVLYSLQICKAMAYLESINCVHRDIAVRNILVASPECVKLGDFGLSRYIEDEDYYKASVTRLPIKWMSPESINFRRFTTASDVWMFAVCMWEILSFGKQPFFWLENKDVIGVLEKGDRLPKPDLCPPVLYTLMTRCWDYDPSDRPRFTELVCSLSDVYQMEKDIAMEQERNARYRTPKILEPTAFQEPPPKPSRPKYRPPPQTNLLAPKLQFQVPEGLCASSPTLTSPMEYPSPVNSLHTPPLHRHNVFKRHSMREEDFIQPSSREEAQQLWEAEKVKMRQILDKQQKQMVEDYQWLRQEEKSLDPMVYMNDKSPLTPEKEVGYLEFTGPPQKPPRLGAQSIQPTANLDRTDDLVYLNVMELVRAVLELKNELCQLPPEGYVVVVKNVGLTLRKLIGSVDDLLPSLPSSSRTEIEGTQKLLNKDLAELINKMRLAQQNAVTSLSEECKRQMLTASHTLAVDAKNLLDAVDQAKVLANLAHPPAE
Chain of Mitogen-activated protein kinase 3 (P27361 whole entry): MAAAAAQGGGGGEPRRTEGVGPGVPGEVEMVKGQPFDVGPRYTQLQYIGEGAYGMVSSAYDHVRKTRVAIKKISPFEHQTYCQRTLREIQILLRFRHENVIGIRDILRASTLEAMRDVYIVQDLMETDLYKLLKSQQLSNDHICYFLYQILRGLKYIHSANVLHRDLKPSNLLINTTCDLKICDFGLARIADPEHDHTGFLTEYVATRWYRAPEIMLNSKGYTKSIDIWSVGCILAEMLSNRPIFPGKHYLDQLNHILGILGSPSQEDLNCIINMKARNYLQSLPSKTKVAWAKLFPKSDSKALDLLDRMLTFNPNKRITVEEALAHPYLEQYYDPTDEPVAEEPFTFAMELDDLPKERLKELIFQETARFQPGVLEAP

In the case of `Cc1ccc(S(=O)(=O)Nc2nc3ccccc3nc2Nc2ccc3nsnc3c2)cc1`, the Kd (at Ephrin type-B receptor 2; in assay [1]; in assay [2]; in assay [3]; at Rab-like protein 3) was > 30 µM (inactive) throughout.
For the compound `COc1cc(OC)c(/C=C/S(=O)(=O)Cc2ccc(OC)c(NCC(=O)O)c2)c(OC)c1` [RIGOSERTIB], the Kd (on Ephrin type-B receptor 2; in assay [1]; in assay [2]; in assay [3]; at Rab-like protein 3) was > 30 µM (inactive) each time.
Regarding `CCn1c(=O)c(-c2cc[nH]n2)cc2c(C)nc(N)nc21` [VOXTALISIB], the Kd (in assay [4]; at Ephrin type-B receptor 2; in assay [1]; in assay [2]; in assay [3]) was > 30 µM (inactive) in each case.
Consider `OCCn1cc(-c2cnc3nnn(Cc4ccc5ncccc5c4)c3n2)cn1` [PF-04217903], for which the Kd (in assay [4]; at Ephrin type-B receptor 2; in assay [1]; in assay [3]; at Rab-like protein 3) was > 30 µM (inactive) each time.
Consider `CO[C@H]1C[C@@H]2CC[C@@H](C)[C@@](O)(O2)C(=O)C(=O)N2CCCC[C@H]2C(=O)O[C@H]([C@H](C)C[C@@H]2CC[C@@H](OCCO)[C@H](OC)C2)CC(=O)[C@H](C)/C=C(\C)[C@@H](O)[C@@H](OC)C(=O)[C@H](C)C[C@H](C)/C=C/C=C/C=C/1C` [EVEROLIMUS], for which the Kd (in assay [4]; at Ephrin type-B receptor 2; in assay [1]; in assay [2]; in assay [3]) was > 30 µM (inactive) in each case.
On to `CCn1c(-c2nonc2N)nc2c(C#CC(C)(C)O)ncc(OC[C@H]3CCCNC3)c21` [GSK-690693], for which the Kd (in assay [4]; at Rab-like protein 3) was > 30 µM (inactive) each time.
As for `Cc1cc(Nc2cc(N3CCN(C)CC3)nc(/C=C/c3ccccc3)n2)n[nH]1` [ENMD-2076], the Kd (in assay [4]; on Ephrin type-B receptor 2; in assay [1]; in assay [3]) was > 30 µM (inactive) in each case.
As for `O=C1NC(=O)/C(=C/c2ccc3nccc(-c4ccncc4)c3c2)S1` [GSK-1059615], the Kd (at Ephrin type-B receptor 2; in assay [1]; in assay [2]; in assay [3]; at Rab-like protein 3) was > 30 µM (inactive) in each case.
Take `C[C@@H](Nc1cc(F)cc(F)c1)c1cc(C(=O)N(C)C)cc2c(=O)cc(N3CCOCC3)oc12` [AZD-8186]: the Kd (on Ephrin type-B receptor 2; in assay [1]; in assay [2]; in assay [3]; on Rab-like protein 3) was > 30 µM (inactive) in each case.
As for `COc1cc(CCc2cc(NC(=O)c3ccc(N4C[C@@H](C)N[C@@H](C)C4)cc3)n[nH]2)cc(OC)c1` [AZD-4547], the Kd (on Ephrin type-B receptor 2; in assay [1]; in assay [2]; in assay [3]; on Rab-like protein 3) was > 30 µM (inactive) in each case.
As for `C=CC(=O)N1CCC(Oc2cc3c(Nc4ccc(Cl)c(Cl)c4F)ncnc3cc2OC)CC1` [POZIOTINIB], the Kd (as a rule, the equilibrium constant for the complex coming apart) on Ephrin type-B receptor 2 is 2.24 µM (active); in assay [1], > 30 µM (inactive); in assay [2] it was > 30 µM (inactive); in assay [3], > 30 µM (inactive); on Rab-like protein 3 it was > 30 µM (inactive).
Take `Nc1nc(N)c2nc(-c3cccc(O)c3)c(-c3cccc(O)c3)nc2n1` [TG100-115]: the Kd (in assay [4]; on Rab-like protein 3) was > 30 µM (inactive) each time.
On to `CN1CCN(c2ccc3nc(-c4c(N)c5c(F)cccc5[nH]c4=O)[nH]c3c2)CC1` [DOVITINIB], for which the Kd on Rab-like protein 3 is > 30 µM (inactive).
Consider `O=C(Nc1cccc(Cl)c1)Nc1ncc(CCNc2ncnc3ccsc23)s1` [SNS-314], for which the Kd (in assay [4]; on Ephrin type-B receptor 2; in assay [1]; in assay [3]; on Rab-like protein 3) was > 30 µM (inactive) throughout.
Regarding `C[C@@H]1CN(Cc2ccc(F)cc2)[C@@H](C)CN1C(=O)c1cc2c(C(=O)C(=O)N(C)C)cn(C)c2cc1Cl` [TALMAPIMOD], the Kd (on Ephrin type-B receptor 2; in assay [1]; in assay [2]; in assay [3]; on Rab-like protein 3) was > 30 µM (inactive) throughout.
`CCc1cnn2c(NCc3ccc[n+]([O-])c3)cc(N3CCCC[C@H]3CCO)nc12` [DINACICLIB]: the Kd (in assay [4]; on Ephrin type-B receptor 2; in assay [1]; in assay [3]; at Rab-like protein 3) was > 30 µM (inactive) throughout.
Take `CN1CCC(COc2cnc(-c3cccc(Cn4nc(-c5cccc(C#N)c5)ccc4=O)c3)nc2)CC1` [TEPOTINIB]: the Kd (in assay [4]; at Ephrin type-B receptor 2; in assay [1]; in assay [2]; in assay [3]) was > 30 µM (inactive) each time.
Consider `C[C@@H](c1ccc2nccn2c1)n1nnc2ncc(-c3cnn(C)c3)nc21` [SAVOLITINIB], for which the Kd (in assay [4]; on Ephrin type-B receptor 2; in assay [1]; in assay [3]; at Rab-like protein 3) was > 30 µM (inactive) each time.
Turning to `Cc1nc(N)sc1-c1ccnc(Nc2ccc(N3CCOCC3)cc2)n1` [CYC-116], the Kd (in assay [4]; in assay [1]; at Rab-like protein 3) was > 30 µM (inactive) throughout.
`Cc1cn(-c2cc(NC(=O)c3ccc(C)c(Nc4nccc(-c5cccnc5)n4)c3)cc(C(F)(F)F)c2)cn1` [NILOTINIB]: the Kd at Rab-like protein 3 was > 30 µM (inactive).

The values above are taken from ChEMBL document CHEMBL3991601, “The target landscape of clinical kinase drugs” (Science, 2017).
